Assay: xn = mol fraction of the nth substance listed
Conditions: Liquid, Vibrating tube method

CCCCCCCCCC [decane] + CCO
Conditions	mass density [kg/m3]
323 K, 1000 kPa, x2 = 0.1011	707.24
323 K, 2000 kPa, x2 = 0.1011	708.19
323 K, 3000 kPa, x2 = 0.1011	709.13
323 K, 4000 kPa, x2 = 0.1011	710.05
323 K, 5000 kPa, x2 = 0.1011	710.96
323 K, 6000 kPa, x2 = 0.1011	711.86
323 K, 7000 kPa, x2 = 0.1011	712.75
323 K, 8000 kPa, x2 = 0.1011	713.62
323 K, 9000 kPa, x2 = 0.1011	714.5
323 K, 10000 kPa, x2 = 0.1011	715.37
323 K, 11000 kPa, x2 = 0.1011	716.23
323 K, 12000 kPa, x2 = 0.1011	717.09
323 K, 13000 kPa, x2 = 0.1011	717.94
323 K, 14000 kPa, x2 = 0.1011	718.79
323 K, 15000 kPa, x2 = 0.1011	719.61
323 K, 16000 kPa, x2 = 0.1011	720.42
323 K, 17000 kPa, x2 = 0.1011	721.22
323 K, 18000 kPa, x2 = 0.1011	722.01
323 K, 19000 kPa, x2 = 0.1011	722.76
323 K, 20000 kPa, x2 = 0.1011	723.51
323.03 K, 1000 kPa, x2 = 0.7526	729.67
323.03 K, 2000 kPa, x2 = 0.7526	730.66
323.03 K, 3000 kPa, x2 = 0.7526	731.64
323.03 K, 4000 kPa, x2 = 0.7526	732.61
323.03 K, 5000 kPa, x2 = 0.7526	733.56
323.03 K, 6000 kPa, x2 = 0.7526	734.49
323.03 K, 7000 kPa, x2 = 0.7526	735.43
323.03 K, 8000 kPa, x2 = 0.7526	736.37
323.03 K, 9000 kPa, x2 = 0.7526	737.3
323.03 K, 10000 kPa, x2 = 0.7526	738.24
323.03 K, 11000 kPa, x2 = 0.7526	739.17
323.03 K, 12000 kPa, x2 = 0.7526	740.08
323.03 K, 13000 kPa, x2 = 0.7526	741
323.03 K, 14000 kPa, x2 = 0.7526	741.9
323.03 K, 15000 kPa, x2 = 0.7526	742.78
323.03 K, 16000 kPa, x2 = 0.7526	743.66
323.03 K, 17000 kPa, x2 = 0.7526	744.51
323.03 K, 18000 kPa, x2 = 0.7526	745.35
323.03 K, 19000 kPa, x2 = 0.7526	746.18
323.03 K, 20000 kPa, x2 = 0.7526	746.98
323.06 K, 1000 kPa, x2 = 0.2507	709.58
323.06 K, 2000 kPa, x2 = 0.2507	710.54
323.06 K, 3000 kPa, x2 = 0.2507	711.48
323.06 K, 4000 kPa, x2 = 0.2507	712.41
323.06 K, 5000 kPa, x2 = 0.2507	713.33
323.06 K, 6000 kPa, x2 = 0.2507	714.23
323.06 K, 7000 kPa, x2 = 0.2507	715.12
323.06 K, 8000 kPa, x2 = 0.2507	716.01
323.06 K, 9000 kPa, x2 = 0.2507	716.9
323.06 K, 10000 kPa, x2 = 0.2507	717.78
323.06 K, 11000 kPa, x2 = 0.2507	718.65
323.06 K, 12000 kPa, x2 = 0.2507	719.53
323.06 K, 13000 kPa, x2 = 0.2507	720.39
323.06 K, 14000 kPa, x2 = 0.2507	721.24
323.06 K, 15000 kPa, x2 = 0.2507	722.08
323.06 K, 16000 kPa, x2 = 0.2507	722.91
323.06 K, 17000 kPa, x2 = 0.2507	723.72
323.06 K, 18000 kPa, x2 = 0.2507	724.51
323.06 K, 19000 kPa, x2 = 0.2507	725.28
323.06 K, 20000 kPa, x2 = 0.2507	726.04
332.86 K, 1000 kPa, x2 = 0.0937	699.25
332.86 K, 1000 kPa, x2 = 0.9014	736.03
332.86 K, 2000 kPa, x2 = 0.0937	700.26
332.86 K, 2000 kPa, x2 = 0.9014	737.11
332.86 K, 3000 kPa, x2 = 0.0937	701.26
332.86 K, 3000 kPa, x2 = 0.9014	738.18
332.86 K, 4000 kPa, x2 = 0.0937	702.24
332.86 K, 4000 kPa, x2 = 0.9014	739.22
332.86 K, 5000 kPa, x2 = 0.0937	703.21
332.86 K, 5000 kPa, x2 = 0.9014	740.19
332.86 K, 6000 kPa, x2 = 0.0937	704.16
332.86 K, 6000 kPa, x2 = 0.9014	741.29
332.86 K, 7000 kPa, x2 = 0.0937	705.1
332.86 K, 7000 kPa, x2 = 0.9014	742.31
332.86 K, 8000 kPa, x2 = 0.0937	706.03
332.86 K, 8000 kPa, x2 = 0.9014	743.33
332.86 K, 9000 kPa, x2 = 0.0937	706.94
332.86 K, 9000 kPa, x2 = 0.9014	744.36
332.86 K, 10000 kPa, x2 = 0.0937	707.85
332.86 K, 10000 kPa, x2 = 0.9014	745.34
332.86 K, 11000 kPa, x2 = 0.0937	708.77
332.86 K, 11000 kPa, x2 = 0.9014	746.35
332.86 K, 12000 kPa, x2 = 0.0937	709.67
332.86 K, 12000 kPa, x2 = 0.9014	747.33
332.86 K, 13000 kPa, x2 = 0.0937	710.57
332.86 K, 13000 kPa, x2 = 0.9014	748.31
332.86 K, 14000 kPa, x2 = 0.0937	711.45
332.86 K, 14000 kPa, x2 = 0.9014	749.26
332.86 K, 15000 kPa, x2 = 0.0937	712.31
332.86 K, 15000 kPa, x2 = 0.9014	750.21
332.86 K, 16000 kPa, x2 = 0.0937	713.17
332.86 K, 16000 kPa, x2 = 0.9014	751.15
332.86 K, 17000 kPa, x2 = 0.0937	714.01
332.86 K, 17000 kPa, x2 = 0.9014	752.07
332.86 K, 18000 kPa, x2 = 0.0937	714.82
332.86 K, 18000 kPa, x2 = 0.9014	752.96
332.86 K, 19000 kPa, x2 = 0.0937	715.64
332.86 K, 19000 kPa, x2 = 0.9014	753.84
332.86 K, 20000 kPa, x2 = 0.0937	716.42
332.86 K, 20000 kPa, x2 = 0.9014	754.71
332.87 K, 1000 kPa, x2 = 0.1011	699.31
332.87 K, 1000 kPa, x2 = 0.4963	707.52
332.87 K, 2000 kPa, x2 = 0.1011	700.32
332.87 K, 2000 kPa, x2 = 0.4963	708.54
332.87 K, 3000 kPa, x2 = 0.1011	701.31
332.87 K, 3000 kPa, x2 = 0.4963	709.55
332.87 K, 4000 kPa, x2 = 0.1011	702.29
332.87 K, 4000 kPa, x2 = 0.4963	710.55
332.87 K, 5000 kPa, x2 = 0.1011	703.26
332.87 K, 5000 kPa, x2 = 0.4963	711.53
332.87 K, 6000 kPa, x2 = 0.1011	704.21
332.87 K, 6000 kPa, x2 = 0.4963	712.5
332.87 K, 7000 kPa, x2 = 0.1011	705.15
332.87 K, 7000 kPa, x2 = 0.4963	713.48
332.87 K, 8000 kPa, x2 = 0.1011	706.08
332.87 K, 8000 kPa, x2 = 0.4963	714.46
332.87 K, 9000 kPa, x2 = 0.1011	707
332.87 K, 9000 kPa, x2 = 0.4963	715.43
332.87 K, 10000 kPa, x2 = 0.1011	707.91
332.87 K, 10000 kPa, x2 = 0.4963	716.38
332.87 K, 11000 kPa, x2 = 0.1011	708.83
332.87 K, 11000 kPa, x2 = 0.4963	717.33
332.87 K, 12000 kPa, x2 = 0.1011	709.73
332.87 K, 12000 kPa, x2 = 0.4963	718.27
332.87 K, 13000 kPa, x2 = 0.1011	710.62
332.87 K, 13000 kPa, x2 = 0.4963	719.21
332.87 K, 14000 kPa, x2 = 0.1011	711.51
332.87 K, 14000 kPa, x2 = 0.4963	720.13
332.87 K, 15000 kPa, x2 = 0.1011	712.38
332.87 K, 15000 kPa, x2 = 0.4963	721.03
332.87 K, 16000 kPa, x2 = 0.1011	713.23
332.87 K, 16000 kPa, x2 = 0.4963	721.92
332.87 K, 17000 kPa, x2 = 0.1011	714.07
332.87 K, 17000 kPa, x2 = 0.4963	722.8
332.87 K, 18000 kPa, x2 = 0.1011	714.88
332.87 K, 18000 kPa, x2 = 0.4963	723.66
332.87 K, 19000 kPa, x2 = 0.1011	715.69
332.87 K, 19000 kPa, x2 = 0.4963	724.5
332.87 K, 20000 kPa, x2 = 0.1011	716.47
332.87 K, 20000 kPa, x2 = 0.4963	725.32
332.91 K, 1000 kPa, x2 = 0.7526	720.88
332.91 K, 2000 kPa, x2 = 0.7526	721.93
332.91 K, 3000 kPa, x2 = 0.7526	722.96
332.91 K, 4000 kPa, x2 = 0.7526	723.98
332.91 K, 5000 kPa, x2 = 0.7526	725
332.91 K, 6000 kPa, x2 = 0.7526	726.01
332.91 K, 7000 kPa, x2 = 0.7526	727.02
332.91 K, 8000 kPa, x2 = 0.7526	728.03
332.91 K, 9000 kPa, x2 = 0.7526	729.03
332.91 K, 10000 kPa, x2 = 0.7526	729.99
332.91 K, 11000 kPa, x2 = 0.7526	730.98
332.91 K, 12000 kPa, x2 = 0.7526	731.94
332.91 K, 13000 kPa, x2 = 0.7526	732.91
332.91 K, 14000 kPa, x2 = 0.7526	733.85
332.91 K, 15000 kPa, x2 = 0.7526	734.78
332.91 K, 16000 kPa, x2 = 0.7526	735.69
332.91 K, 17000 kPa, x2 = 0.7526	736.6
332.91 K, 18000 kPa, x2 = 0.7526	737.48
332.91 K, 19000 kPa, x2 = 0.7526	738.35
332.91 K, 20000 kPa, x2 = 0.7526	739.19
332.97 K, 1000 kPa, x2 = 0.2507	701.45
332.97 K, 2000 kPa, x2 = 0.2507	702.46
332.97 K, 3000 kPa, x2 = 0.2507	703.46
332.97 K, 4000 kPa, x2 = 0.2507	704.44
332.97 K, 5000 kPa, x2 = 0.2507	705.41
332.97 K, 6000 kPa, x2 = 0.2507	706.36
332.97 K, 7000 kPa, x2 = 0.2507	707.31
332.97 K, 8000 kPa, x2 = 0.2507	708.26
332.97 K, 9000 kPa, x2 = 0.2507	709.21
332.97 K, 10000 kPa, x2 = 0.2507	710.12
332.97 K, 11000 kPa, x2 = 0.2507	711.06
332.97 K, 12000 kPa, x2 = 0.2507	711.97
332.97 K, 13000 kPa, x2 = 0.2507	712.88
332.97 K, 14000 kPa, x2 = 0.2507	713.78
332.97 K, 15000 kPa, x2 = 0.2507	714.65
332.97 K, 16000 kPa, x2 = 0.2507	715.53
332.97 K, 17000 kPa, x2 = 0.2507	716.38
332.97 K, 18000 kPa, x2 = 0.2507	717.21
332.97 K, 19000 kPa, x2 = 0.2507	718.03
332.97 K, 20000 kPa, x2 = 0.2507	718.82

From the NIST ThermoML archive (doi:10.1016/j.jct.2012.06.012)
